Assay results: ChEMBL document CHEMBL2177053, “Current landscape of phosphodiesterase 10A (PDE10A) inhibition” (J Med Chem, 2012)

Tests used:
[1] = molecular target: T1, cAMP and cAMP-inhibited cGMP 3',5'-cyclic phosphodiesterase 10A (Homo sapiens, UniProt Q9Y233); assay: Inhibition of PDE10A by fluorescence polarization assay
[2] = molecular target: T1, cAMP and cAMP-inhibited cGMP 3',5'-cyclic phosphodiesterase 10A; assay: Inhibition of human full length PDE10A expressed in SF21 cells using [3H]cGMP as substrate after 60 mins by scintillation proximity assay
[3] = Inhibition of mouse PDE10A7 using fluorescein labeled cAMP and cGMP as substrate after 60 mins by IMAP TR-FRET assay
[4] = test system: Rattus norvegicus; assay: Antipsychotic activity in sc dosed rat assessed as decrease in amphetamine-induced spontaneous locomotor activity; assay type: functional
[5] = test system: Rattus norvegicus; assay: Antipsychotic activity in sc dosed rat assessed as decrease in spontaneous locomotor activity; assay type: functional
[6] = test system: Rattus norvegicus; assay: Antipsychotic activity in sc dosed rat prepulse inhibition model; assay type: functional
[7] = test system: Rattus norvegicus; assay: Antipsychotic activity in sc dosed rat by conditioned avoidance response test; assay type: functional
[8] = test system: Rattus norvegicus; assay: Antipsychotic activity in sc dosed rat assessed as decrease in phencyclidine-induced locomotor activity; assay type: functional
[9] = test system: Rattus norvegicus; assay: Antipsychotic activity in sc dosed Wiga rat assessed as inhibition of phencyclidine-induced hyperlocomotion administered 60 mins prior to phencyclidine challenge measured up to 30 mins; assay type: functional
[10] = test system: Rattus norvegicus; assay: Antipsychotic activity in sc dosed Wistar Wiga rat assessed as latency to avoid an electric shock measured up to 120 mins by conditioned avoidance responce test; assay type: functional; details: 2 h
[11] = test system: Rattus norvegicus; assay: Antipsychotic activity in iv dosed rat assessed as inhibition of apomorphine-induced Stereotypy administered 1 hr prior to apomorphine challenge; assay type: functional
[12] = test system: Mus musculus; assay: Antipsychotic activity in iv dosed NMRI mouse assessed as inhibition of SCH-23390-induced hypolocomotion administered 30 mins prior to SCH-23390 challenge measured up to 30 mins; assay type: functional
[13] = molecular target: T1, cAMP and cAMP-inhibited cGMP 3',5'-cyclic phosphodiesterase 10A; assay: Inhibition of PDE10A using [3H]cAMP and [3H]cGMP as substrate after 30 mins by scintillation counting
[14] = molecular target: T1, cAMP and cAMP-inhibited cGMP 3',5'-cyclic phosphodiesterase 10A; assay: Inhibition of PDE10A
[15] = molecular target: T1, cAMP and cAMP-inhibited cGMP 3',5'-cyclic phosphodiesterase 10A; assay: Inhibition of PDE10A at 1 uM
[16] = molecular target: T1, cAMP and cAMP-inhibited cGMP 3',5'-cyclic phosphodiesterase 10A; assay: Inhibition of human full length PDE10A using [3H]cGMP as substrate after 20 mins by scintillation proximity assay
[17] = molecular target: T1, cAMP and cAMP-inhibited cGMP 3',5'-cyclic phosphodiesterase 10A; assay: Inhibition of PDE10A by cell-based assay
[18] = molecular target: T1, cAMP and cAMP-inhibited cGMP 3',5'-cyclic phosphodiesterase 10A; assay: Inhibition of human PDE10A1 using [3H]cAMP as substrate after 20 mins by TopCount scintillation counting
[19] = test system: Mus musculus; assay: Antipsychotic activity in NMRI mouse assessed as inhibition of phencyclidine-induced hyperlocomotion at 5 mg/kg, sc administered 60 mins prior to phencyclidine challenge measured up to 60 mins relative to vehicle-treated control; assay type: functional; details: route subcutaneous
[20] = Selectivity ratio of IC50 for PDE4 to IC50 for PDE10A
[21] = Inhibition of bovine PDE10A using [3H]cAMP as substrate after 90 mins by scintillation counting; design: species or system Bos taurus
[22] = Selectivity ratio of IC50 for PDE1B1 to IC50 for rat recombinant PDE10A2

T1 sequence (Q9Y233 whole entry): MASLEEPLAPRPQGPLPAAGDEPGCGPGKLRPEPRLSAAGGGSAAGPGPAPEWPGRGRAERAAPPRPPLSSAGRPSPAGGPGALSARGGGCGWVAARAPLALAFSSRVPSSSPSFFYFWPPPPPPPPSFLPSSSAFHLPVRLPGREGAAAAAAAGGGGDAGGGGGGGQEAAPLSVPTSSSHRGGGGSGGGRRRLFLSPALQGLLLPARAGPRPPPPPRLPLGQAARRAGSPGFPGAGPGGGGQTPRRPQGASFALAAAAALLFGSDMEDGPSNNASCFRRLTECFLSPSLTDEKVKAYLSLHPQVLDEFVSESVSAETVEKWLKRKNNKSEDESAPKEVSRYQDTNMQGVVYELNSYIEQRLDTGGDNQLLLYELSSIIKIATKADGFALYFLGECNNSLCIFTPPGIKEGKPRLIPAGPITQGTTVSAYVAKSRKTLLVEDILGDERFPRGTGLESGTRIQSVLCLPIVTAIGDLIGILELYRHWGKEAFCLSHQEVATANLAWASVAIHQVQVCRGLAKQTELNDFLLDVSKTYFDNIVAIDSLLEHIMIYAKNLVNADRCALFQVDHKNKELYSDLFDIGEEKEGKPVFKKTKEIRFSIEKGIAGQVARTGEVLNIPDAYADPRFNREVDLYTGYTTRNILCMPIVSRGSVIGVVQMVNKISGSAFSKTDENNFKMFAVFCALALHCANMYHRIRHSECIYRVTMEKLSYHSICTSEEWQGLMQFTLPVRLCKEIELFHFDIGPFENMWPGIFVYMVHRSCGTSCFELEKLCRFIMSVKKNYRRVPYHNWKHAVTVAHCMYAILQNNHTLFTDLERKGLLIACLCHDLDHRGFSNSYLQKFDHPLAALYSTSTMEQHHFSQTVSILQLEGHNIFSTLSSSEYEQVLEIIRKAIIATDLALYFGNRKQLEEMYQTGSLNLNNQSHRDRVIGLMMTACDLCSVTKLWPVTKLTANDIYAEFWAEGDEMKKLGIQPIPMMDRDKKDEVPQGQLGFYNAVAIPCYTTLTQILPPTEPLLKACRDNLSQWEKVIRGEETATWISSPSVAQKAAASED

## O=C(Nc1ccccc1)N1CCc2nc(-c3cccnc3)nc(NCC3C=NC(c4ccccc4)=N3)c2C1 (configuration not stated)
[1]
  Ki: 2.19 nM

## COc1cn(-c2ccccc2F)nc(-c2ccnn2-c2ccccc2)c1=O
[2]
  IC50: < 10 nM

## Clc1cccnc1N1CC(c2nc3ccccc3[nH]2)C1
[3]
  IC50: 7.8 nM

## O=C(CCCN1CCC(O)(c2ccc(Cl)cc2)CC1)c1ccc(F)cc1 [HALOPERIDOL]
[4]
  ED50: 0.02 mg/kg
[5]
  ED50: 0.07 mg/kg
[6]
  ED50: 0.32 mg/kg
[7]
  ED50: 0.04 mg/kg
[8]
  ED50: 0.13 mg/kg

## COCCc1ccc(-c2c(C)nc3c(N4CCOCC4)ccnn23)cn1 [JNJ-42396302]
[9]
  ED50: 2 mg/kg
[10]
  ED50: 4.7 mg/kg
[11]
  ED50: 1.3 mg/kg
[12]
  ED50: 7.1 mg/kg

## COc1cc2c(cc1OC)-c1c(-c3cncc(-n4ccc5ccccc54)c3)nc(C)n1CC2
[13]
  IC50: < 10 nM

## Clc1ccc(/C=C(/COc2ccncc2)c2ccc(OCc3ccc4ccccc4n3)cc2)cc1
[14]
  IC50: < 100 nM
[15]
  inhibition: 100%

## COc1ccc(-c2cc(N3CCn4ccnc4C3)nc(/C=C/c3nc(N(C)C)c4ccccc4n3)n2)cc1OC
[14]
  IC50: 0.44 nM

## OCC1CCN(c2nccnc2OC2CN(c3ccc4ccccc4n3)C2)CC1
[3]
  IC50: 2.3 nM

## CN(C(=O)COc1ccc(-c2c(-c3ccc(Cl)cc3)nc3sccn23)cc1)c1ccccn1
[13]
  IC50: < 100 nM

## Cc1nc2ccc(C(F)(F)F)cc2nc1/C=C/c1nc(N[C@@H]2CCS(=O)(=O)C2)cc(N2CCCC2)n1
[14]
  IC50: 0.0033 nM

## c1cnc2c(c1)CN(c1ncccc1-c1ccc(OCc3ccc4ccccc4n3)cc1)CC2
[1]
  Ki: < 1000 nM

## COc1cn(-c2ccc(-n3cccn3)cc2F)nc(-c2ccnn2-c2cccc(Cl)c2)c1=O
[2]
  IC50: < 10 nM

## COCCn1nc(-c2ccccn2)cc1NC(=O)c1nc(C2CC2)ccc1Nc1cncnc1
[16]
  IC50: < 1 nM

## Cc1nc2ccccc2nc1CCc1nc(C(=O)NC[C@@H]2CCCO2)cc(N2CCCC2)n1
[14]
  IC50: 3.3 nM

## O=c1[nH]c(CCc2nc(-c3ccsc3)c[nH]2)nc2ccccc12
[14]
  IC50: < 500 nM
[17]
  EC300: < 0.5 µM

## COc1cc(-c2csc(C(=O)C(OC)c3ccc(N4CCOCC4)cc3)n2)cc(OC)c1Br (configuration not stated)
[13]
  IC50: < 1000 nM

## CC(C)(C)c1ccc(C2CC2C(=O)N/N=C/c2cccc3cnccc23)cc1 (configuration not stated)
[18]
  IC50: < 50 nM

## Cc1cc(Cl)cc2c(N3CCCN(S(C)(=O)=O)CC3)c3c(C)n[nH]c3nc12
[13]
  IC50: < 100 nM

## CC(=O)N1CCC(c2cccnc2O[C@H]2C[C@@H](Nc3ccc4ccccc4n3)C2)CC1
[3]
  IC50: 4.9 nM

## COc1cc(-c2ccc(C(=O)C(OC)c3ccc(-c4nnc(C)o4)cc3)o2)cc(OC)c1OC (configuration not stated)
[13]
  IC50: < 1000 nM

## Cc1nc2ccccc2nc1OCc1cc(OC2CCOCC2)nc(N2CCCC2)n1
[14]
  IC50: 0.22 nM

## COc1cncc(-c2ncn3c2-c2cc(OC)c(OC)cc2CC3)c1
[13]
  IC50: < 10 nM

## Cc1ccc(C)n2nc(CCc3nc(-c4ccccc4)cn3C)nc12
[19]
  inhibition in vivo at 5 mg/kg: 99%

## COc1ccc(C2CC(=O)N(Cc3ccc(-c4cccnc4)cc3F)C2)c2c1oc1ccccc12 (single isomer, unassigned; (+))
[14]
  IC50: 15 nM
[20]
  Ratio IC50: > 670

## COc1c(C)cc(COc2ccc(-c3cccnc3N3CCc4ncccc4C3)cc2)nc1C
[1]
  Ki: < 1000 nM

## OCC1CCN(c2cncc(OC3CN(c4ccc5ccccc5n4)C3)n2)CC1
[3]
  IC50: 0.6 nM

## Cc1nc2ccccc2nc1-c1cc2nc(N3CCCC3)cc(NC3CCOCC3)n2n1
[21]
  IC50: 0.11 nM

## CC(C)(C)c1nnc2c(C(=O)NCCCc3nc4ccccc4[nH]3)cc(-c3ccc(O)cc3)cn12
[13]
  IC50: < 10 nM

## Cn1c(CCc2ccc3ncccc3n2)nc2c3cccnc3ccc21
[14]
  IC50: < 500 nM
[17]
  EC300: < 0.5 µM

## c1ccc(-c2ccc(OCc3ccc4ccccc4n3)cc2)c(-c2ccncc2)c1
[18]
  IC50: < 50 nM

## CCCC(=O)N(Cc1cccnc1)c1ccc(OCc2ccc3ccccc3n2)cc1
[13]
  IC50: < 100 nM

## Cc1nc2c(nc1-c1cc3nc(N4CCCC4)cc(N[C@H]4CC[C@](C)(O)CC4)n3n1)CCCO2
[21]
  IC50: 0.27 nM

## Cc1ccc(C)n2nc(CCc3nc(-c4ccsc4)nn3C)nc12
[14]
  IC50: 5.3 nM

## Cc1ncc(C)n2nc(CCc3c[nH]c(-c4cccs4)n3)nc12
[14]
  IC50: 0.34 nM

## O=C(N/N=C/c1cccc2cnccc12)C1CC1c1ccc(-c2ccccc2)cc1 (configuration not stated)
[18]
  IC50: < 50 nM

## COCCOc1ccc(-c2c(C)nc3c(-c4ccncc4)ccnn23)cn1
[9]
  ED50: 6.1 mg/kg
[10]
  ED50: 5.4 mg/kg
[11]
  ED50: 1.5 mg/kg
[12]
  ED50: 5 mg/kg
[22]
  Ratio IC50: 200

## CN1CCN(C2=Nc3cc(Cl)ccc3Nc3ccccc32)CC1 [CLOZAPINE]
[4]
  ED50: 0.87 mg/kg
[5]
  ED50: 1.63 mg/kg
[6]
  ED50: 0.56 mg/kg
[7]
  ED50: 5 mg/kg
[8]
  ED50: 1.8 mg/kg
